Experimental data taken from patent publication US20240269088A1, “PAIN RELIEF PATCH” (CS MEDICA A/S, priority 2021, published 2024).

Test system: pain
Experiment: Comparison of skin patches formulated with type A versus type B crystalline CBD
Format: in vivo
Source text: The “potency” and/or “activity” of “type A” CBD can e.g. be determined by comparing the effect using essentially identical compositions with the exception of the type and/or quantity of CBD used. Said potency, activity and or effect can e.g. be determined essentially as disclosed in the Examples by replacing the placebo with the “B-type” CBD comprising formulation. Alternatively, the potency can be determined in the quantity of CBD needed to provide the same effect, such as pain relief.
Two different sets of skin patches are provided according to Example 1, e.g. formulation A or F, the only difference being that the crystalline CBD used in the formulation is either of type A (needle-like crystals; FIG. 9) or type B (bunch/cluster-like; FIG. 10).
Type A crystalline CBD is sourced from Enecta, while type B CBD is sourced from Pharma Hemp.
Such tests can e.g. be performed, mutatis mutandis, according to Examples 1-4.

## C=C(C)[C@@H]1CCC(C)=C[C@H]1c1c(O)cc(CCCCC)cc1O [type A CBD, Cannabidiol]
Observed by the inventors, see Example 6
  Potency of CBD with needle-like crystal structure compared with CBD of crystal structure B: significantly more potent
Skin patches according to Example 1, e.g. formulation A or F, only the crystalline CBD differs
  Activity of skin patch with type A CBD compared with comparable skin patch with type B CBD: significantly more active
